Measured values as given in publication PMC7785020, “A unique hormonal recognition feature of the human glucagon-like peptide-2 receptor” (Cell Research, 2020).
Positions count from the first letter of the chain named.

Key:
[1] = molecular target: T1, GLP-2R Y186^1.47A (Homo sapiens, UniProt O95838, Y186A); assay: cAMP accumulation, Y186^1.47A; assay type: cell-based; design: WT (1–553); expressed in transfected cells; HEK 293T (cAMP); conditions: Table S3, Y186A; HEK 293T, 30 min, RT; mean ± SEM, n ≥ 3 in duplicate; read-out: cAMP Emax (% WT)
T1 sequence (O95838 1-553 Y186A): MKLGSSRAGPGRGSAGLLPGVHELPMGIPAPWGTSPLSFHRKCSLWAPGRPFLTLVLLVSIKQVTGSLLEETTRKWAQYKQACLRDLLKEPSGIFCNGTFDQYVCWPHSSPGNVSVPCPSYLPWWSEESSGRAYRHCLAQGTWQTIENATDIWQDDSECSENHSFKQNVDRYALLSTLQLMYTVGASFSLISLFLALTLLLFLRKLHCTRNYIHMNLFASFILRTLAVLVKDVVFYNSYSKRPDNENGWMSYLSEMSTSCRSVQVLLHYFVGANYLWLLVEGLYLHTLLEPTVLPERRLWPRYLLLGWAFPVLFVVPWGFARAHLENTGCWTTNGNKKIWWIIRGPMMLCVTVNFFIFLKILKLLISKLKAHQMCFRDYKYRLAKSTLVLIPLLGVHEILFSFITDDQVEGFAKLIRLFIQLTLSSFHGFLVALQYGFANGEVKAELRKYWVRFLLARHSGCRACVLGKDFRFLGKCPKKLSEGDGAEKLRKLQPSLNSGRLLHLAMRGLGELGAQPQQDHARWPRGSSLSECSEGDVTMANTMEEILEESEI
Method: (§1) HEK 293T cells were cultured in Dulbecco’s Modified Eagle’s Medium (DMEM) (Gibco, Waltham, USA) supplemented with 10% (v/v) fetal bovine serum (FBS) (Gibco) and 1% (v/v) sodium pyruvate (Gibco) at 37 °C, 5% CO2 in a humidified incubator. They were seeded onto 6-well cell culture plates and transiently transfected with different GLP-2R constructs using Lipofectamine 2000 transfection reagent (Invitrogen, Carlsbad, CA, USA). After 24 h, the transfected cells were seeded onto 384-well microtiter plates (3000 cells per well) in HBSS supplemented with 5 mM HEPES, 0.1% (w/v) bovine serum albumin (BSA) and 0.5 mM 3-isobutyl-1- methylxanthine, and stimulated with increasing concentrations of GLP-2 for 30 min at RT. Eu and Ulight were diluted by cAMP detection buffer and added to the plates separately to terminate the reaction. Plates were incubated at RT for 60 min before measuring the fluorescence intensity at 620 nm and […] by an EnVision multilabel plate reader (PerkinElmer, Boston, USA).

[2] = molecular target: T2, GLP-2R Y182^1.43A (Homo sapiens, UniProt O95838, Y182A); assay: cAMP accumulation, Y182^1.43A; assay type: cell-based; design: WT (1–553); expressed in transfected cells; HEK 293T (cAMP); conditions: Table S3, Y182A; HEK 293T, 30 min, RT; mean ± SEM, n ≥ 3 in duplicate; read-out: cAMP Emax (% WT)
T2 sequence (O95838 1-553 Y182A): T1 sequence (O95838 1-553 Y186A) with Y182A, A186Y
Method: as §1

[3] = molecular target: T3, GLP-2R (1-490)-LgBiT (Homo sapiens, UniProt O95838); assay: cAMP accumulation, truncated construct; assay type: cell-based; conditions: Table S2, GLP-2R (1-490)-LgBiT; HEK 293T, 30 min, RT; mean ± SEM, n ≥ 3 in duplicate; read-out: cAMP accumulation Emax (% WT)
T3 construct: the C-terminus-truncated GLP-2R(1–490)-LgBiT; HA signal peptide (N); TEV site-OMBP-MBP (C); expressed in transfected cells; host or cells: HEK 293T
Method: as §1

[4] = molecular target: T4, GLP-2R mutant ECL1 (poly-alanine) (Homo sapiens, UniProt O95838, D244A/DELINS236-257AAAAAAAAAAAAAAAAAAAAAA/E246A/E255A/G248A/K241A/L253A/M250A/M256A/N237A/N245A/N247A/P243A/R242A/S238A/S240A/S251A/S254A/S257A/W249A/Y236A/Y239A/Y252A); assay: radioligand competition binding, ECL1 (poly-alanine); conditions: COS-7, ECL1 (residues 236–257) substituted by poly-alanine; [^125I]GLP-2(1–33, M10Y) 10–15 pM, 4 h, 4 °C; mean ± SEM, n ≥ 3 in duplicate
T4 construct: WT (1–553); expressed in transfected cells; host or cells: COS-7
Method: A stepwise oxidation reaction was performed by addition of 6 aliquots of 5 µL ChloramineT (30 µL/mL) with a 1-min interval during constant stirring. The reaction was terminated by the addition of 400 µL phase A (0.1% trifluoracetic acid) before being fractionated into 1 mL volume by reverse-phase high-performance liquid chromatography (RP-HPLC, Waters 600 SimiPrep system) on a C18 column. The iodinated protein was […] by increasing concentrations of phase B (Acetonitrile + 0.1% TFA) and tested for competitive binding ability.
One day before transfection, the COS-7 cells were seeded in 75 cm^2 culture flasks (3 million cells/flask) in DMEM, containing 3.9 g/L NaHCO3 and supplemented with 10% FBS, 1% L-glutamine, 180 units/mL penicillin and 45 µg/mL streptomycin. […] Following 24-h incubation, the cells were transferred to Costa® microtiter plates (150,000 cells/well, PerkinElmer) to achieve a 5%–10% specific binding. Forty-eight hours after transfection, the cells were washed twice in binding buffer (50 mM HEPES, pH 7.4, supplemented with 1 mM CaCl2, 5 mM MgCl2 and 0.5% (w/v) BSA) and incubated for 15 min at 4 °C. […] The cells were then washed twice in binding buffer (4 °C), lysed and counted for radioactivity using a Wallac Gamma Counter (PerkinElmer).

T3 sequence (O95838 1-490): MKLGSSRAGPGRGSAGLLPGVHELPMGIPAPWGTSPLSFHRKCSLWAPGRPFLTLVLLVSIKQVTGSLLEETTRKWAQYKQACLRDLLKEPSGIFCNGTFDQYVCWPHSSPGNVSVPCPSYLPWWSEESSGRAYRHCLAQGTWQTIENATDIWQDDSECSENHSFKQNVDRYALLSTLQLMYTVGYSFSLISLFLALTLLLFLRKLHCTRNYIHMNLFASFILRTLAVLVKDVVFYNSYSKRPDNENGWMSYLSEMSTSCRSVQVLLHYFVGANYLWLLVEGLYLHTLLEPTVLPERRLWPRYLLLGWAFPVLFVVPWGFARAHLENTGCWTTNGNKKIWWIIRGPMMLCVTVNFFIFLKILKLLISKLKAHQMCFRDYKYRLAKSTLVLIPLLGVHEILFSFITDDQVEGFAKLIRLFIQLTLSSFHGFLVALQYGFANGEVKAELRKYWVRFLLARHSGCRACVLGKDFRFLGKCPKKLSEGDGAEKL

CC[C@H](C)[C@H](NC(=O)[C@H](Cc1ccccc1)NC(=O)[C@H](CC(=O)O)NC(=O)[C@H](CCCNC(=N)N)NC(=O)[C@H](C)NC(=O)[C@H](C)NC(=O)[C@H](CC(C)C)NC(=O)[C@H](CC(N)=O)NC(=O)[C@H](CC(=O)O)NC(=O)[C@H](CC(C)C)NC(=O)[C@@H](NC(=O)[C@@H](NC(=O)[C@H](CC(N)=O)NC(=O)[C@H](CCSC)NC(=O)[C@H](CCC(=O)O)NC(=O)[C@H](CC(=O)O)NC(=O)[C@H](CO)NC(=O)[C@H](Cc1ccccc1)NC(=O)[C@H](CO)NC(=O)CNC(=O)[C@H](CC(=O)O)NC(=O)[C@H](C)NC(=O)[C@@H](N)Cc1c[nH]cn1)[C@@H](C)O)[C@@H](C)CC)C(=O)N[C@@H](CC(N)=O)C(=O)N[C@@H](Cc1c[nH]c2ccccc12)C(=O)N[C@@H](CC(C)C)C(=O)N[C@H](C(=O)N[C@@H](CCC(N)=O)C(=O)N[C@H](C(=O)N[C@@H](CCCCN)C(=O)N[C@H](C(=O)N[C@H](C(=O)N[C@@H](CC(=O)O)C(=O)O)[C@@H](C)O)[C@@H](C)CC)[C@@H](C)O)[C@@H](C)CC [Human GLP-2 (1–33)]
Emax [1]: 100 ± 2.8%
Emax [2]: 102 ± 3.9%
Emax [3]: 85.3 ± 4%
% Binding of WT [4]: 3.0 ± 1.1 %
